Results as given in patent US8785488B2 (Exelixis Patent Company LLC, priority 2009, dated 2014).

Experiments:
human TGR5 (h-TGR5) = molecular target: T1, human TGR5 (h-TGR5) (Homo sapiens, UniProt Q8TDU6); assay: TGR5/CRE-Luciferiase Assay (HEK 293 hTGR5/CRE-Luc cells); format: cell-based; settings: h-TGR5 CRE-Luc EC50, Table 1; read-out: CRE-Luc (EC50)
T1 construct: expressed in transfected cells
T1 sequence (Q8TDU6 1-330): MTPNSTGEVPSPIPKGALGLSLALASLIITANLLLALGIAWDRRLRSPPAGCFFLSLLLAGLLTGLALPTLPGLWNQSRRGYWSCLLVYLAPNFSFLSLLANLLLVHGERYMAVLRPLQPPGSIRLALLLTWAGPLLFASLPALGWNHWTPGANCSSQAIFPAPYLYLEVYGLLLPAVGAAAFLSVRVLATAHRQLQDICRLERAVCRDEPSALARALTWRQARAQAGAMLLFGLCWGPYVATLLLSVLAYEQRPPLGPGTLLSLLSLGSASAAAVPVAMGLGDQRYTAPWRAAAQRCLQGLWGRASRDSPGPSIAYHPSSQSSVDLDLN
How it was run: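 HEK293 cells stably carrying hTGR5 and a CRE-luciferase reporter were exposed to serially diluted compounds (diluted in DMEM with 5% DMSO) for 6 h. Cells were then lysed in luciferase buffer, luminescence was read, and EC50 values were derived from dose-response curves.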

h-TGR5 = molecular target: T2, h-TGR5 (Homo sapiens, UniProt Q8TDU6); assay: TGR5 cAMP Assay using Cisbio cAMP Dynamic2 htrf kit (hTGR5CRE-luc HEK 293 cells); format: cell-based; settings: h-TGR5 cAMP EC50, Table 1; read-out: cAMP (EC50)
T2 construct: expressed in transfected cells
T2 sequence (Q8TDU6 1-330): T1 sequence (Q8TDU6 1-330)
How it was run: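 […], 4000 hTGR5CRE-luc HEK 293 cells per well, with 0.5 mM IBMX and d2-cAMP, were incubated 30 min at room temperature with compounds in 8-point half-log series, in quadruplicate.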

| SMILES | EC50 (human TGR5 (h-TGR5)) [nM] | EC50 (h-TGR5) [nM] |
| --- | --- | --- |
| CC(C)(c1ccc(CO)c(Cl)c1)c1cnc(SCc2ccc(F)cc2Cl)n1-c1ccc(F)cc1 [(2-chloro-4-{1-[2-{[(2-chloro-4-fluorophenyl)methyl]thio}-1-(4-fluorophenyl)-1H-imidazol-5-yl]-1-methylethyl}phenyl)methanol] | 100 to 1000 | 100 to 1000 |
| COc1cc(C(C)(C)c2cnc(SCc3c(F)cc(C(=O)Nc4nnn[nH]4)cc3Cl)n2-c2ccc(F)cc2)ccc1Cl [3-chloro-4-({[5-{1-[4-chloro-3-(methyloxy)phenyl]-1-methylethyl}-1-(4-fluorophenyl)-1H-imidazol-2-yl]thio}methyl)-5-fluoro-N-1H-tetrazol-5-ylbenzamide] | < 100 | < 100 |
| COc1cc(C(C)(C)c2cnc(SCc3c(F)cc(OCCNC(=N)N)cc3F)n2-c2ccc(F)cc2)ccc1F [1-(2-{[3,5-difluoro-4-({[5-{1-[4-fluoro-3-(methyloxy)phenyl]-1-methylethyl}-1-(4-fluorophenyl)-1H-imidazol-2-yl]thio}methyl)phenyl]oxy}ethyl)guanidine] | < 100 | < 100 |
| COc1cc(C(C)(C)c2c(C)nc(SCc3c(F)cc(C(=O)O)cc3Cl)n2-c2ccc(F)cc2)ccc1Cl [3-chloro-4-({[5-{1-[4-chloro-3-(methyloxy)phenyl]-1-methylethyl}-1-(4-fluorophenyl)-4-methyl-1H-imidazol-2-yl]thio}methyl)-5-fluorobenzoic acid] | 100 to 1000 | < 100 |
| COc1cc(C(C)(C)c2cnc(SCc3c(F)cc(C(=O)NCCCC(=O)O)cc3Cl)n2-c2ccc(F)cc2)ccc1Cl [4-({[3-chloro-4-({[5-{1-[4-chloro-3-(methyloxy)phenyl]-1-methylethyl}-1-(4-fluorophenyl)-1H-imidazol-2-yl]thio}methyl)-5-fluorophenyl]carbonyl}amino)butanoic acid] | < 100 | < 100 |
| COc1ccc(C(C)(C)c2cnc(SCc3c(F)cc(C(=O)O)cc3Cl)n2-c2ccc(F)cc2)cc1Cl [3-chloro-4-({[5-{1-[3-chloro-4-(methyloxy)phenyl]-1-methylethyl}-1-(4-fluorophenyl)-1H-imidazol-2-yl]thio}methyl)-5-fluorobenzoic acid] | < 100 | < 100 |
| COc1ccc(C(C)(C)c2cnc(SCc3c(F)cc(C#N)cc3F)n2-c2ccc(F)cc2)cc1Cl [4-({[5-{1-[3-chloro-4-(methyloxy)phenyl]-1-methylethyl}-1-(4-fluorophenyl)-1H-imidazol-2-yl]thio}methyl)-3,5-difluorobenzonitrile] | < 100 | < 100 |
| COc1cc(-n2c(C(C)(C)c3ccc(Cl)c(Cl)c3)cnc2SCc2ccc(S(=O)(=O)NC(=O)NN3CCOCC3)cc2Cl)ccc1F [3-chloro-4-[({5-[1-(3,4-dichlorophenyl)-1-methylethyl]-1-[4-fluoro-3-(methyloxy)phenyl]-1H-imidazol-2-yl}thio)methyl]-N-[(morpholin-4-ylamino)carbonyl]benzenesulfonamide] | 100 to 1000 | 100 to 1000 |
| CC(C)(c1ccc(Cl)c(Cl)c1)c1cnc(SCc2c(F)cc(C(N)=O)cc2F)n1-c1ccc(F)cc1 [4-[({5-[1-(3,4-dichlorophenyl)-1-methylethyl]-1-(4-fluorophenyl)-1H-imidazol-2-yl}thio)methyl]-3,5-difluorobenzamide] | 100 to 1000 | 100 to 1000 |
| COc1ccc(C(C)(C)c2cnc(SCc3ccc(F)c(S(N)(=O)=O)c3)n2-c2ccc(F)cc2)cc1Cl [5-({[5-{1-[3-chloro-4-(methyloxy)phenyl]-1-methylethyl}-1-(4-fluorophenyl)-1H-imidazol-2-yl]thio}methyl)-2-fluorobenzenesulfonamide] | < 100 | < 100 |
| CC(C)(c1ccc(Cl)c(Cl)c1)c1cnc(COc2c(F)cc(C(=O)O)cc2Cl)n1-c1ccc(F)cc1 | 100 to 1000 | 100 to 1000 |
| COc1cc(C(C)(C)c2cnc(SCc3c(F)cc(-c4noc(=O)[nH]4)cc3F)n2-c2ccc(F)cc2)ccc1Cl [3-[4-({[5-{1-[4-chloro-3-(methyloxy)phenyl]-1-methylethyl}-1-(4-fluorophenyl)-1H-imidazol-2-yl]thio}methyl)-3,5-difluorophenyl]-1,2,4-oxadiazol-5(4H)-one] | < 100 | < 100 |
| COc1cc(C(C)(C)c2cnc(SCc3c(F)cc(C(=O)NCS(=O)(=O)O)cc3F)n2-c2ccc(F)cc2)ccc1Cl [({[4-({[5-{1-[4-chloro-3-(methyloxy)phenyl]-1-methylethyl}-1-(4-fluorophenyl)-1H-imidazol-2-yl]thio}methyl)-3,5-difluorophenyl]carbonyl}amino)methanesulfonic acid] | < 100 | < 100 |
| CC(C)NC(=O)NS(=O)(=O)c1ccc(CSc2ncc(C(C)(C)c3ccc(F)c(C(F)F)c3)n2-c2ccc(F)cc2)c(Cl)c1 [3-chloro-4-({[5-{1-[3-(difluoromethyl)-4-fluorophenyl]-1-methylethyl}-1-(4-fluorophenyl)-1H-imidazol-2-yl]thio}methyl)-N-{[(1-methylethyl)amino]carbonyl} benzenesulfonamide] | 100 to 1000 | 100 to 1000 |
| COc1cc(C(C)(C)c2cnc(SCc3c(F)ccc(S(N)(=O)=O)c3F)n2-c2ccc(F)cc2)ccc1Cl [3-({[5-{1-[4-chloro-3-(methyloxy)phenyl]-1-methylethyl}-1-(4-fluorophenyl)-1H-imidazol-2-yl]thio}methyl)-2,4-difluorobenzenesulfonamide] | < 100 | < 100 |
| COc1cc(C(C)(C)c2cnc(SCc3ccc(S(=O)(=O)NC(=O)NN4CCCC4)cc3Cl)n2-c2ccc(F)cn2)ccc1Cl [3-chloro-4-({[5-{1-[4-chloro-3-(methyloxy)phenyl]-1-methylethyl}-1-(5-fluoropyridin-2-yl)-1H-imidazol-2-yl]thio}methyl)-N-[(pyrrolidin-1-ylamino)carbonyl]benzenesulfonamide] | 100 to 1000 | 100 to 1000 |
| CC(C)(c1cccc(S(C)(=O)=O)c1)c1cnc(SCc2c(F)cccc2Cl)n1-c1ccc(F)cc1 [2-{[(2-chloro-6-fluorophenyl)methyl]thio}-1-(4-fluorophenyl)-5-{1-methyl-1-[3-(methylsulfonyl)phenyl]ethyl}-1H-imidazole] | 100 to 1000 | < 100 |
| COc1cc(-n2c(C(C)(C)c3ccc(S(C)(=O)=O)cc3)cnc2SCc2ccc(Cl)c(-c3nnn[nH]3)c2)ccc1F [5-(2-chloro-5-{[(1-[4-fluoro-3-(methyloxy)phenyl]-5-{1-methyl-1-[4-(methylsulfonyl)phenyl]ethyl}-1H-imidazol-2-yl)thio]methyl}phenyl)-1H-tetrazole] | 100 to 1000 | 100 to 1000 |
| COc1cc(C(C)(C)c2cnc(S(=O)(=O)CC3CCN(S(C)(=O)=O)CC3)n2-c2ccc(F)cc2)ccc1Cl [4-({[5-{1-[4-chloro-3-(methyloxy)phenyl]-1-methylethyl}-1-(4-fluorophenyl)-1H-imidazol-2-yl]sulfonyl}methyl)-1-(methylsulfonyl)piperidine] | 100 to 1000 | 100 to 1000 |
| CC(C)(c1ccc(S(N)(=O)=O)c(Cl)c1)c1cnc(SCc2ccc(Cl)c(-c3nnn[nH]3)c2)n1-c1ccc(F)cc1 [2-chloro-4-{1-[2-({[4-chloro-3-(1H-tetrazol-5-yl)phenyl]methyl}thio)-1-(4-fluorophenyl)-1H-imidazol-5-yl]-1-methylethyl}benzenesulfonamide] | 100 to 1000 | 100 to 1000 |
| COc1cc(C(C)(C)c2cnc(SCc3c(F)cc(NC(=O)[C@@H](N)CC(=O)O)cc3Cl)n2-c2ccc(F)cc2)ccc1Cl | < 100 | < 100 |
| COc1cc(C(C)(C)c2cnc(SCc3c(F)cc(C(=O)NO)cc3F)n2-c2ccc(F)cc2)ccc1Cl [4-({[5-{1-[4-chloro-3-(methyloxy)phenyl]-1-methylethyl}-1-(4-fluorophenyl)-1H-imidazol-2-yl]thio}methyl)-3,5-difluoro-N-hydroxybenzamide] | < 100 | < 100 |
| COc1cc(C(C)(C)c2cnc(SCc3ccc(C(=O)O)c(F)c3)n2-c2ccc(F)cc2)ccc1Cl [4-({[5-{1-[4-chloro-3-(methyloxy)phenyl]-1-methylethyl}-1-(4-fluorophenyl)-1H-imidazol-2-yl]thio}methyl)-2-fluorobenzoic acid] | 100 to 1000 | < 100 |
| CC(C)(c1ccc(S(N)(=O)=O)c(Cl)c1)c1cnc(SCc2ccc(S(=O)(=O)NC(=O)NN3CCCC3)cc2Cl)n1-c1ccc(F)cc1 [4-({[5-{1-[4-(aminosulfonyl)-3-chlorophenyl]-1-methylethyl}-1-(4-fluorophenyl)-1H-imidazol-2-yl]thio}methyl)-3-chloro-N-[(pyrrolidin-1-ylamino)carbonyl]benzenesulfonamide] | 100 to 1000 | 100 to 1000 |
| COc1cc(C(C)(C)c2cnc(SCC3CCN(c4nnn[nH]4)CC3)n2-c2ccc(F)cc2)ccc1Cl [4-({[5-{1-[4-chloro-3-(methyloxy)phenyl]-1-methylethyl}-1-(4-fluorophenyl)-1H-imidazol-2-yl]thio}methyl)-1-(1H-tetrazol-5-yl)piperidine] | < 100 | 100 to 1000 |
